Measurements taken from patent US20160200733A1, “SUBSTITUTED THIENO[2,3-B]PYRIDINE-2-CARBOXAMIDE ANALOGS AS POSITIVE ALLOSTERIC MODULATORS OF THE MUSCARINIC ACETYLCHOLINE RECEPTOR M4” (Vanderbilt University, priority 2013, published 2016).

Target: T1, mAChR hM4 (Homo sapiens, UniProt P08173)
T1 construct: expressed in transfected cells; host or cells: CHO-K1 (Chinese hamster ovary) cells
T1 sequence (P08173 1-479): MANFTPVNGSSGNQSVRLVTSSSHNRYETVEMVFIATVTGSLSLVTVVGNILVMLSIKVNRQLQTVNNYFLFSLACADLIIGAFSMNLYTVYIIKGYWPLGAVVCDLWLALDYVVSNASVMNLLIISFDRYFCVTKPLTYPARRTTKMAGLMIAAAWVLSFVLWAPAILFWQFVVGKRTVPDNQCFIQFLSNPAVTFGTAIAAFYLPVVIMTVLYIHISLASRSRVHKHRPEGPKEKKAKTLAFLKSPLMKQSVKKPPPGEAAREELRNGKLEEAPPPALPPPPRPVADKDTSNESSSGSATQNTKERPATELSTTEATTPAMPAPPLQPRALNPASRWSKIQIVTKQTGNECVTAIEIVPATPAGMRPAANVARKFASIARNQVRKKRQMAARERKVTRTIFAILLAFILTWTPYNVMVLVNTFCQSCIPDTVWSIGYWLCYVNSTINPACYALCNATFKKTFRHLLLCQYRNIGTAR
Assay: mAChR M4 cell-based functional assay (calcium flux, potentiation of EC20 acetylcholine response)
Conditions: mAChR hM4 cell-line; for EC50: >10,000 estimated for low potency compounds lacking a plateau
Source text: In one aspect, the disclosed compounds potentiate the agonist response (e.g., acetylcholine) of mAChR M4. In a further aspect, the disclosed compounds increase mAChR M4 response to non-maximal concentrations of agonist in the presence of compound compared to the response to agonist in the absence of compound. […] For example, activation of mAChR M4 activity can be determined by measurement of calcium flux in response to agonist, e.g. acetylcholine, in cells loaded with a Ca^2+-sensitive fluorescent dye (e.g., Fluo-4). In a further aspect, the calcium flux was measured as an increase in fluorescent static ratio. In a yet further aspect, positive allosteric modulator activity was analyzed as a concentration-dependent increase in the EC20 acetylcholine response (i.e. the response of mAChR M4 at a concentration of acetylcholine that yields 20% of the maximal response).
In one aspect, the disclosed compounds activate mAChR M4 response as an increase in calcium fluorescence in mAChR M4-transfected CHO-K1 cells in the presence of the compound, compared to the response of equivalent CHO-K1 cells in the absence of the compound. […] In a further aspect, the mAChR M4-transfected CHO-K1 cells are transfected with human mAChR M4. In a still further aspect, the mAChR M4-transfected CHO-K1 cells are transfected with rat mAChR M4.
Substituted 3-aminothieno[2,3-c]pyridine-2-carboxamide analogs were synthesized as described above. Activity (EC50 and Emax) was determined in the mAChR M4 cell-based functional assay as described above, and the data are shown in Table II for assays conducted using mAChR hM4 cell-line. The compound number corresponds to the compound numbers used in Table I.

Compound | Emax at 30 µM (% ACh maximum at 30 μM) [%] | EC50 [nM] | Emax (%) (% ACh maximum at 30 μM)
COc1ccc(C(C)NC(=O)c2sc3nc(C)c(Cl)c(C)c3c2Br)cc1 (stereo not shown) [Compound 40, 3-bromo-5-chloro-N-(1-(4-methoxyphenyl)ethyl)-4,6-dimethylthieno[2,3-b]pyridine-2-carboxamide] |  | > 10000 | 
Cc1nc2sc(C(=O)NCC3CC3)c(Br)c2c(C)c1Cl [Compound 42, 3-bromo-5-chloro-N-(cyclopropylmethyl)-4,6-dimethylthieno[2,3-b]pyridine-2-carboxamide] |  | > 10000 | 
COc1ccc(CN(C)C(=O)c2sc3nc(C)c(Cl)c(C)c3c2Br)cc1 [Compound 43, 3-bromo-5-chloro-N-(4-methoxybenzyl)-N,4,6-trimethylthieno[2,3-b]pyridine-2-carboxamide] |  | > 10000 | 
Cc1nc2sc(C(=O)NCc3ccc(S(C)(=O)=O)cc3)c(Br)c2c(C)c1Cl [Compound 45, 3-bromo-5-chloro-4,6-dimethyl-N-(4-(methylsulfonyl)benzyl)thieno[2,3-b]pyridine-2-carboxamide] |  | > 10000 | 
Cc1nc2sc(C(=O)NCc3ccc4c(c3)CCO4)c(Br)c2c(C)c1Cl [Compound 46, 3-bromo-5-chloro-N-((2,3-dihydrobenzofuran-5-yl)methyl)-4,6-dimethylthieno[2,3-b]pyridine-2-carboxamide] |  | > 10000 | 
COc1ccc(CNC(=O)c2sc3nc(C)c(Cl)c(C)c3c2Br)cc1 [Compound 47, 3-bromo-5-chloro-N-(4-methoxybenzyl)-4,6-dimethylthieno[2,3-b]pyridine-2-carboxamide] |  | > 10000 | 
Cc1nc2sc(C(=O)NCC(C)(C)O)c(C3CC3)c2c(C)c1Cl [Compound 50, 5-chloro-3-cyclopropyl-N-(2-hydroxy-2-methylpropyl)-4,6-dimethylthieno[2,3-b]pyridine-2-carboxamide] | 43 | > 10000 | 
Cc1nc2sc(C(=O)NC3CCS(=O)(=O)C3)c(C3CC3)c2c(C)c1Cl (stereo not shown) [Compound 51, 5-chloro-3-cyclopropyl-N-(1,1-dioxidotetrahydrothiophen-3-yl)-4,6-dimethylthieno[2,3-b]pyridine-2-carboxamide] |  | > 10000 | 
COc1ccc(CNC(=O)c2sc3nc(C)c(Cl)c(C)c3c2C2CC2)cc1 [Compound 53, 5-chloro-3-cyclopropyl-N-(4-methoxybenzyl)-4,6-dimethylthieno[2,3-b]pyridine-2-carboxamide] |  | > 10000 | 
Cc1nc2sc(C(=O)NC3CCN(C)CC3)c(C)c2c(C)c1Cl [Compound 58, 5-chloro-3,4,6-trimethyl-N-(1-methylpiperidin-4-yl)thieno[2,3-b]pyridine-2-carboxamide] |  | > 10000 | 
Cc1nc2sc(C(=O)NC3COC3)c(-c3ccccc3)c2c(C)c1Cl [Compound 62, 5-chloro-4,6-dimethyl-N-(oxetan-3-yl)-3-phenylthieno[2,3-b]pyridine-2-carboxamide] |  | > 10000 | 
Cc1nc2sc(C(=O)N3CCC(c4ccccc4)C3)c(C3CC3)c2c(C)c1Cl (stereo not shown) [Compound 64, (5-chloro-3-cyclopropyl-4,6-dimethylthieno[2,3-b]pyridin-2-yl)(3-phenylpyrrolidin-1-yl)methanone] |  | > 10000 | 
COc1ccc(C2CC2NC(=O)c2sc3nc(C)c(Cl)c(C)c3c2C2CC2)cc1 (stereo not shown) [Compound 65, 5-chloro-3-cyclopropyl-N-(2-(4-methoxyphenyl)cyclopropyl)-4,6-dimethylthieno[2,3-b]pyridine-2-carboxamide] |  | > 10000 | 

The remaining lines, values ahead:

Emax at 30 µM (% ACh maximum at 30 μM) [%] | EC50 [nM] | Emax (%) (% ACh maximum at 30 μM) | Compound
67 | 4100 |  | CCc1c(C(=O)NCc2ccc(S(C)(=O)=O)cc2)sc2nc(C)cc(C)c12 [Compound 38, 3-ethyl-4,6-dimethyl-N-(4-(methylsulfonyl)benzyl)thieno[2,3-b]pyridine-2-carboxamide]
 | > 10000 |  | Cc1nc2sc(C(=O)NCc3ccc4c(c3)OCCO4)c(Br)c2c(C)c1Cl [Compound 39, 3-bromo-5-chloro-N-((2,3-dihydrobenzo[b][1,4]dioxin-6-yl)methyl)-4,6-dimethylthieno[2,3-b]pyridine-2-carboxamide]
84 | 530 |  | Cc1nc2sc(C(=O)NC3COC3)c(Br)c2c(C)c1Cl [Compound 41, 3-bromo-5-chloro-4,6-dimethyl-N-(oxetan-3-yl)thieno[2,3-b]pyridine-2-carboxamide]
54 | 590 |  | Cc1nc2sc(C(=O)NC3CCOC3)c(Br)c2c(C)c1Cl (stereo not shown) [Compound 44, 3-bromo-5-chloro-4,6-dimethyl-N-(tetrahydrofuran-3-yl)thieno[2,3-b]pyridine-2-carboxamide]
54 | 570 |  | Cc1nc2sc(C(=O)NC3(C)COC3)c(Br)c2c(C)c1Cl [Compound 48, 3-bromo-5-chloro-4,6-dimethyl-N-(3-methyloxetan-3-yl)thieno[2,3-b]pyridine-2-carboxamide]
62 | 770 |  | Cc1nc2sc(C(=O)NC3CC3)c(Br)c2c(C)c1Cl [Compound 49, 3-bromo-5-chloro-N-cyclopropyl-4,6-dimethylthieno[2,3-b]pyridine-2-carboxamide]
60 | 1600 |  | Cc1nc2sc(C(=O)NC3CCOC3)c(C3CC3)c2c(C)c1Cl (stereo not shown) [Compound 52, 5-chloro-3-cyclopropyl-4,6-dimethyl-N-(tetrahydrofuran-3-yl)thieno[2,3-b]pyridine-2-carboxamide]
50 | 430 |  | Cc1nc2sc(C(=O)NC3CC3)c(C3CC3)c2c(C)c1Cl [Compound 54, 5-chloro-N,3-dicyclopropyl-4,6-dimethylthieno[2,3-b]pyridine-2-carboxamide]
85 | 860 |  | Cc1nc2sc(C(=O)NC3COC3)c(C3CC3)c2c(C)c1Cl [Compound 55, 5-chloro-3-cyclopropyl-4,6-dimethyl-N-(oxetan-3-yl)thieno[2,3-b]pyridine-2-carboxamide]
38 | 1400 |  | Cc1nc2sc(C(=O)NC3(C)COC3)c(C3CC3)c2c(C)c1Cl [Compound 56, 5-chloro-3-cyclopropyl-4,6-dimethyl-N-(3-methyloxetan-3-yl)thieno[2,3-b]pyridine-2-carboxamide]
79 | 1200 |  | Cc1nc2sc(C(=O)NC3CCOC3)c(C)c2c(C)c1Cl (stereo not shown) [Compound 57, 5-chloro-3,4,6-trimethyl-N-(tetrahydrofuran-3-yl)thieno[2,3-b]pyridine-2-carboxamide]
45 | 950 |  | Cc1nc2sc(C(=O)NC3CCS(=O)(=O)C3)c(C)c2c(C)c1Cl (stereo not shown) [Compound 59, 5-chloro-N-(1,1-dioxidotetrahydrothiophen-3-yl)-3,4,6-trimethylthieno[2,3-b]pyridine-2-carboxamide]
79 | 380 |  | Cc1nc2sc(C(=O)NC3CC3)c(C)c2c(C)c1Cl [Compound 60, 5-chloro-N-cyclopropyl-3,4,6-trimethylthieno[2,3-b]pyridine-2-carboxamide]
 | 360 | 70 | Cc1nc2sc(C(=O)NC3COC3)c(Br)c2c(C)c1Cl [Compound 61, 3-bromo-5-chloro-4,6-dimethyl-N-(oxetan-3-yl)thieno[2,3-b]pyridine-2-carboxamide]
76 | 410 |  | Cc1nc2sc(C(=O)NC3COC3)c(C)c2c(C)c1Cl [Compound 63, 5-chloro-3,4,6-trimethyl-N-(oxetan-3-yl)thieno[2,3-b]pyridine-2-carboxamide]
